From ChEMBL document CHEMBL3885881, “DrugMatrix”

Organism: Rattus norvegicus
Assay: DrugMatrix - Regimen: Daily Repeat
Type: toxicity, organism-based, Sprague-Dawley
Set-up: regimen Daily Repeat, gender Male, age 6-8 weeks
Details: in vivo, po, route oral GAVAGE, […]; for ABSOLUTE BASOPHIL / ABSOLUTE EOSINOPHIL / ABSOLUTE LYMPHOCYTE / ABSOLUTE MONOCYTE / ABSOLUTE SEGMENTED NEUTROPHIL / BASOPHIL / EOSINOPHIL / ERYTHROCYTE COUNT / HEMATOCRIT / HEMOGLOBIN / LEUKOCYTE COUNT / LYMPHOCYTE / MEAN CORPUSCULAR HEMOGLOBIN / MEAN CORPUSCULAR HEMOGLOBIN CONCENTRATION / MEAN CORPUSCULAR VOLUME / MONOCYTE / NEUTROPHIL / NUCLEATED RED BLOOD CELLS / PLATELET COUNT: tissue Blood; for ALANINE AMINOTRANSFERASE / ALBUMIN / ALKALINE PHOSPHATASE / ASPARTATE AMINOTRANSFERASE / BLOOD UREA NITROGEN / CARBON DIOXIDE / CHLORIDE / CHOLESTEROL / CREATINE PHOSPHOKINASE / CREATININE / GLUCOSE / LACTATE DEHYDROGENASE / LIPASE / PHOSPHORUS / POTASSIUM / SODIUM / TOTAL BILIRUBIN / TOTAL PROTEIN / URIC ACID: tissue Plasma
[1] = 0 mg/kg, 72 h, dose level Control, time 3 day
[2] = 0 mg/kg, 120 h, dose level Control, time 5 day
[3] = 100 mg/kg, 72 h, dose level Low, time 3 day

CCCC[C@@H](CC)COC(=O)c1ccccc1C(=O)OC[C@@H](CC)CCCC [BIS(2-ETHYLHEXYL)PHTHALATE]
ABSOLUTE BASOPHIL [1]: 0 CELLS/uL | ABSOLUTE EOSINOPHIL [1]: 13.67 CELLS/uL | ABSOLUTE LYMPHOCYTE [1]: 10069.5 CELLS/uL | ABSOLUTE MONOCYTE [1]: 50 CELLS/uL | ABSOLUTE SEGMENTED NEUTROPHIL [1]: 516.83 CELLS/uL | BASOPHIL [1]: 0% | EOSINOPHIL [1]: 0.17% | ERYTHROCYTE COUNT [1]: 5.44 x10E6/uL | HEMATOCRIT [1]: 33.88% | HEMOGLOBIN [1]: 13.23 G/DL | LEUKOCYTE COUNT [1]: 10.65 x10E3/uL | LYMPHOCYTE [1]: 94.67% | MEAN CORPUSCULAR HEMOGLOBIN [1]: 24.37 pg | MEAN CORPUSCULAR HEMOGLOBIN CONCENTRATION [1]: 39.05 G/DL | MEAN CORPUSCULAR VOLUME [1]: 62.38 fL | MONOCYTE [1]: 0.67% | NEUTROPHIL [1]: 4.5% | NUCLEATED RED BLOOD CELLS [1]: 0.33 /100WBC | PLATELET COUNT [1]: 414.5 x10E3/uL | ALANINE AMINOTRANSFERASE [1]: 72 u/L | ALBUMIN [1]: 3.75 G/DL | ALKALINE PHOSPHATASE [1]: 375 u/L | ASPARTATE AMINOTRANSFERASE [1]: 87.5 u/L | BLOOD UREA NITROGEN [1]: 14 mg/dL | CARBON DIOXIDE [1]: 27.5 mmol/L | CHLORIDE [1]: 95.83 MEQ/L | CHOLESTEROL [1]: 68.5 mg/dL | CREATINE PHOSPHOKINASE [1]: 284.33 u/L | CREATININE [1]: 0.16 mg/dL | GLUCOSE [1]: 156.67 mg/dL | LACTATE DEHYDROGENASE [1]: 101.83 u/L | LIPASE [1]: 9.67 u/L | PHOSPHORUS [1]: 10.33 mg/dL | POTASSIUM [1]: 5.22 MEQ/L | SODIUM [1]: 137.67 MEQ/L | TOTAL BILIRUBIN [1]: 0.13 mg/dL | TOTAL PROTEIN [1]: 5.43 G/DL | URIC ACID [1]: 0.8 mg/dL | ABSOLUTE BASOPHIL [2]: 0 CELLS/uL | ABSOLUTE EOSINOPHIL [2]: 20.67 CELLS/uL | ABSOLUTE LYMPHOCYTE [2]: 11518.33 CELLS/uL | ABSOLUTE MONOCYTE [2]: 47 CELLS/uL | ABSOLUTE SEGMENTED NEUTROPHIL [2]: 614 CELLS/uL | BASOPHIL [2]: 0% | EOSINOPHIL [2]: 0.17% | ERYTHROCYTE COUNT [2]: 5.61 x10E6/uL | HEMATOCRIT [2]: 34.25% | HEMOGLOBIN [2]: 13.38 G/DL | LEUKOCYTE COUNT [2]: 12.2 x10E3/uL | LYMPHOCYTE [2]: 94.33% | MEAN CORPUSCULAR HEMOGLOBIN [2]: 23.83 pg | MEAN CORPUSCULAR HEMOGLOBIN CONCENTRATION [2]: 39.08 G/DL | MEAN CORPUSCULAR VOLUME [2]: 61.03 fL | MONOCYTE [2]: 0.33% | NEUTROPHIL [2]: 5.17% | NUCLEATED RED BLOOD CELLS [2]: 0 /100WBC | PLATELET COUNT [2]: 941.83 x10E3/uL | ALANINE AMINOTRANSFERASE [2]: 68.83 u/L | ALBUMIN [2]: 4.12 G/DL | ALKALINE PHOSPHATASE [2]: 492.67 u/L | ASPARTATE AMINOTRANSFERASE [2]: 83.33 u/L | BLOOD UREA NITROGEN [2]: 14 mg/dL | CARBON DIOXIDE [2]: 37 mmol/L | CHLORIDE [2]: 98.67 MEQ/L | CHOLESTEROL [2]: 56.5 mg/dL | CREATINE PHOSPHOKINASE [2]: 167.33 u/L | CREATININE [2]: 0.17 mg/dL | GLUCOSE [2]: 157.5 mg/dL | LACTATE DEHYDROGENASE [2]: 104.83 u/L | LIPASE [2]: 10 u/L | PHOSPHORUS [2]: 10.43 mg/dL | POTASSIUM [2]: 5.46 MEQ/L | SODIUM [2]: 143.87 MEQ/L | TOTAL BILIRUBIN [2]: 0.17 mg/dL | TOTAL PROTEIN [2]: 5.72 G/DL | URIC ACID [2]: 0.85 mg/dL | ABSOLUTE BASOPHIL [3]: 0 CELLS/uL | ABSOLUTE EOSINOPHIL [3]: 23 CELLS/uL | ABSOLUTE LYMPHOCYTE [3]: 7479.67 CELLS/uL | ABSOLUTE MONOCYTE [3]: 44.67 CELLS/uL | ABSOLUTE SEGMENTED NEUTROPHIL [3]: 819.33 CELLS/uL | BASOPHIL [3]: 0% | EOSINOPHIL [3]: 0.33% | ERYTHROCYTE COUNT [3]: 5.6 x10E6/uL | HEMATOCRIT [3]: 35.03% | HEMOGLOBIN [3]: 13.73 G/DL | LEUKOCYTE COUNT [3]: 8.37 x10E3/uL | LYMPHOCYTE [3]: 89% | MEAN CORPUSCULAR HEMOGLOBIN [3]: 24.5 pg | MEAN CORPUSCULAR HEMOGLOBIN CONCENTRATION [3]: 39.17 G/DL | MEAN CORPUSCULAR VOLUME [3]: 62.6 fL | MONOCYTE [3]: 0.67% | NEUTROPHIL [3]: 10% | NUCLEATED RED BLOOD CELLS [3]: 0 /100WBC | PLATELET COUNT [3]: 750.33 x10E3/uL | ALANINE AMINOTRANSFERASE [3]: 89.33 u/L | ALBUMIN [3]: 3.97 G/DL | ALKALINE PHOSPHATASE [3]: 408.33 u/L | ASPARTATE AMINOTRANSFERASE [3]: 88.67 u/L | BLOOD UREA NITROGEN [3]: 14 mg/dL | CARBON DIOXIDE [3]: 26.67 mmol/L | CHLORIDE [3]: 96 MEQ/L | CHOLESTEROL [3]: 60 mg/dL | CREATINE PHOSPHOKINASE [3]: 210.67 u/L | CREATININE [3]: 0.11 mg/dL | GLUCOSE [3]: 148.33 mg/dL | LACTATE DEHYDROGENASE [3]: 81 u/L | LIPASE [3]: 10.33 u/L | PHOSPHORUS [3]: 10 mg/dL | POTASSIUM [3]: 5.11 MEQ/L | SODIUM [3]: 138.1 MEQ/L | TOTAL BILIRUBIN [3]: 0.17 mg/dL | TOTAL PROTEIN [3]: 5.5 G/DL | URIC ACID [3]: 0.63 mg/dL
